# Test results as given in paper PMC5338256, “D-form KLKLLLLLKLK-NH2 peptide exerts higher antimicrobial properties than its L-form counterpart via an association with bacterial cell wall components” (Scientific Reports, 2017).
# Like-named read-outs stand apart in the source and are kept apart here. Non-standard residues stand in square brackets, D forms with d. Residues, ends and D or L forms follow the SMILES beside them. No end group written: not given here.
# Columns and labels:
# [1] = system: S. aureus; assay type: cell-based, Staphylococcus aureus (NBRC100910)
# Method: (§1) S. aureus (NBRC100910), E. coli W3110 (NBRC12713), E. hirae (NBRC3181), C. albicans (NBRC1385), and S. Typhimurium 14028s (ATCC14028)[2] were used in this study. S. aureus, E. coli, and S. Typhimurium were grown at 37 °C with aeration in Muller-Hinton II medium (BD Biosciences). E. hirae was grown at 37 °C in LB medium (Nacalai Tesque, Inc.) containing 0.5% glucose (w/v). C. albicans was grown at room temperature with aeration in YM medium (BD Biosciences). All experiments were conducted using bacterial cells and C. albicans in the logarithmic-phase of growth.
# (§2) Bacterial suspensions in Muller-Hinton II medium were adjusted to an optical density of 550 nm (OD550) = 0.0011. C. albicans suspensions in YM medium were adjusted to OD650 = 0.033. Peptides were serially diluted in 10 mM phosphate buffer (pH 6.0) containing 130 mM sodium chloride, 0.2% bovine serum albumin, and 2.56% dimethyl sulfoxide. The peptide solution (100 μl) was mixed with 100 μl of bacteria or C. albicans suspensions. Bacterial cultures were incubated for one day at 37 °C. C. albicans cultures were incubated for two days at room temperature. Cell growth was monitored optically and the MIC was determined.
# [2] = system: S. aureus; experiment: Inhibition of antimicrobial activity by bacterial cell wall components; assay type: cell-based, Staphylococcus aureus; conditions: Kn2–7 6.25 μg/ml, Mastoparan M 8 μg/ml, 10 min
# Method: (§3) Bacteria and C. albicans were suspended in growth medium. Peptides suspended in dimethyl sulfoxide were serially diluted in 10 mM phosphate buffer (pH 6.0) containing 130 mM sodium chloride, 0.2% bovine serum albumin as described previously. In order to examine the effects of bovine serum albumin on the assay, 10 mM phosphate buffer (pH 6.0) containing 130 mM sodium chloride, was used for the dilution of peptides. Peptide solution (500 μl) was added to 500 μl of bacteria suspensions and then the mixture was incubated at 37 °C for 10 min. In order to examine the effects of culture medium components on the assay, bacteria suspension was prepared with 10 mM phosphate buffer (pH 6.0) containing 130 mM sodium chloride. Alternatively, 500 μl of peptide solution was added to 500 μl of C. albicans suspensions and the mixture was incubated at room temperature for 10 min. The inhibitory effects of the bacterial components were analyzed by incubating 450 μl of S. aureus suspension with 500 μl of peptide solution plus 50 μl of inhibitor samples at 37 °C for 10 min. Then, the peptide/bacteria suspensions were diluted and plated onto LB agar, LB agar containing 0.5% glucose, or YM agar. After cultivation of the plates, colony forming units (CFU) in the peptide/bacteria suspension were calculated based on the average of triplicate plates.
# Peptidoglycan (120 μg) prepared from S. aureus was added to 1 mg/ml of lysozyme in phosphate buffered saline (150 μl)[33]. Peptidoglycan without lysozyme and lysozyme without peptidoglycan were also prepared as controls. Samples were incubated overnight at 37 °C, and then incubated at 100 °C for 15 min to inactivate lysozyme. For heat-inactivation of peptidoglycan, 600 μg of peptidoglycan suspended in water (300 μl) was incubated at 100 °C for 15 min. The samples were sonicated for 10 sec at setting 1 using a Branson sonifier model S-150D. These samples were used as inhibitor samples for antimicrobial activity assays.
# [3] = system: S. aureus; experiment: Assay for membrane permeability (ethidium influx); assay type: cell-based, Staphylococcus aureus; conditions: 20 μg/ml peptide, fluorescence for 180 sec, 10 mM phosphate buffer pH 6.0, 130 mM NaCl, 0.2% BSA
# Method: To examine membrane permeability, ethidium influx rates were examined as previously described. S. aureus suspension cultures were adjusted to an OD600 of 0.4 in 10 mM phosphate buffer (pH 6.0) containing 130 mM sodium chloride and 0.2% bovine serum albumin. Then, peptide in dimethyl sulfoxide (8 μl) or dimethyl sulfoxide alone (8 μl) was added to 2 ml of S. aureus suspensions. At 30 sec after the addition of peptide, ethidium bromide was added to a final concentration of 5 μg/ml, and fluorescence of the ethidium-nucleic acid complex was monitored using a RF-5300PC spectrofluorometer (Shimadzu). Excitation and emission wavelengths were 545 nm with 5 nm slits and 600 nm with 10 nm slits, respectively.
# [4] = system: S. aureus; experiment: Assay for antimicrobial activity (10 min exposure, CFU); assay type: cell-based, Staphylococcus aureus (NBRC100910); conditions: 10 min at 37 °C, standard assay with culture medium and 0.2% BSA, triplicate plates
# Method: as §1, §3
# [5] = system: S. aureus; experiment: Peptide degradation in the S. aureus assay mixture (SDS-PAGE, Ruby stain); assay type: in vitro ADME, Staphylococcus aureus; conditions: 15 μg/ml peptide with S. aureus, 10 min at 37 °C, antimicrobial assay mixture, Ruby protein gel stain
# [6] = system: C. albicans; assay type: cell-based, Candida albicans (NBRC1385)
# Method: as §1, §2
# [7] = system: E. coli; assay type: cell-based, Escherichia coli W3110 (NBRC12713); conditions: pH 6
# Method: as §1, §2
# [8] = system: Gram-positive bacteria; conditions: cited from earlier work
# Text: Sapecin B is an antimicrobial peptide that was originally isolated from the culture medium of an embryonic cell line, NIH-Sape-4, derived from Sarcophaga peregrine (flesh fly). […] Two other related proteins, sapecin and sapecin C, were also isolated from culture medium of NIH-Sape-4[13][14][15]. Sapecin B has significant sequence similarity to a scorpion venom toxin, charybdotoxin[13][16]. Structural comparison of sapecin B and charybdotoxin identified the undecapeptide RSLCLLHCRLK-NH2, which corresponds to amino acid residues 7 to 1 ...
# [9] = S. aureus, Muller-Hinton II medium mixed 1:1 with peptide in 10 mM phosphate buffer pH 6.0, 130 mM NaCl, 0.2% BSA, 2.56% DMSO, one day at 37 °C, growth monitored optically
molecule,measurement,setting,value
"CC[C@@H](C)[C@@H](NC(=O)[C@H](N)Cc1ccccc1)C(=O)N[C@H](CCCCN)C(=O)N[C@H](CCCNC(=N)N)C(=O)N[C@@H](C(=O)N[C@H](C)C(=O)N[C@H](CCCNC(=N)N)C(=O)N[C@H](CC(C)C)C(=O)N[C@H](CC(C)C)C(=O)N[C@H](CCCNC(=N)N)C(=O)N[C@H](CCCCN)C(=O)N[C@@H](C(=O)N[C@H](Cc1ccccc1)C(N)=O)[C@H](C)CC)[C@H](C)CC [D-form FIKRIARLLRKIF-NH2, reference compound] (H-[dF][dI][dK][dR][dI][dA][dR][dL][dL][dR][dK][dI][dF]-NH2; N-terminus assumed)",MIC,[1]; [9],4 µg/mL
same,inhibitory effect of S. aureus peptidoglycan on the antimicrobial activity,[2],significant inhibitory effects
"CC[C@@H](C)[C@@H](NC(=O)CNC(=O)[C@@H](CO)NC(=O)[C@@H](CC(C)C)NC(=O)[C@H](NC(=O)[C@@H](CCCNC(=N)N)NC(=O)CNC(=O)[C@H](NC(=O)[C@@H](CC(C)C)NC(=O)[C@H]1CCCN1C(=O)[C@@H](CC(C)C)NC(=O)[C@H](N)Cc1ccccc1)[C@H](C)CC)C(C)C)C(=O)N[C@H](CC(C)C)C(N)=O [D-form FLPLIGRVLSGIL-NH2, reference compound] (H-[dF][dL][dP][dL][dI]G[dR][dV][dL][dS]G[dI][dL]-NH2; N-terminus assumed)",MIC,[1]; [9],8 µg/mL
"CC[C@@H](C)[C@@H](N)C(=O)N[C@H](CC(N)=O)C(=O)N[C@H](CC(C)C)C(=O)N[C@H](CCCCN)C(=O)N[C@H](C)C(=O)N[C@@H](C(=O)N[C@H](C)C(=O)N[C@H](C)C(=O)N[C@H](CC(C)C)C(=O)N[C@H](C)C(=O)N[C@H](CCCCN)C(=O)N[C@H](CCCCN)C(=O)N[C@H](CC(C)C)C(=O)N[C@H](CC(C)C)C(N)=O)[C@H](C)CC [D-form INLKAIAALAKKLL-NH2, reference compound] (H-[dI][dN][dL][dK][dA][dI][dA][dA][dL][dA][dK][dK][dL][dL]-NH2)",MIC,[1]; [9],16 µg/mL
same,inhibitory effect of S. aureus peptidoglycan on the antimicrobial activity,[2],weak inhibitory effects
same,ethidium bromide influx rate,[3],increased ethidium bromide influx rates to a similar extent
CC(C)C[C@@H](NC(=O)[C@H](N)CCCCN)C(=O)N[C@H](CCCCN)C(=O)N[C@H](CC(C)C)C(=O)N[C@H](CC(C)C)C(=O)N[C@H](CC(C)C)C(=O)N[C@H](CCCCN)C(=O)N[C@H](CC(C)C)C(=O)N[C@H](CCCCN)C(N)=O [D-form KLKLLLKLK-NH2] (H-[dK][dL][dK][dL][dL][dL][dK][dL][dK]-NH2; N-terminus assumed),fold by which the MIC of the D-form is lower than that of the L-form,[1]; S. aureus,more than 32 fold
same,MIC,[1]; [9],4 µg/mL
same,"antimicrobial activity (CFU), D-form compared with L-form",[4],higher
"FIKRIARLLRKIF-NH2 [L-form FIKRIARLLRKIF-NH2, reference compound]",MIC,[1]; [9],4 µg/mL
"FLPLIGRVLSGIL-NH2 [L-form FLPLIGRVLSGIL-NH2, reference compound]",MIC,[1]; [9],8 µg/mL
"INLKAIAALAKKLL-NH2 [L-form INLKAIAALAKKLL-NH2, reference compound]",MIC,[1]; [9],16 µg/mL
KLKLLLKLK-NH2 [L-form KLKLLLKLK-NH2],MIC,[1]; [9],>128 µg/mL
KLKLLLLLKLK-NH2 [L-form KLKLLLLLKLK-NH2],specific degradation of the peptide,[5],specific degradation of the L-form peptide was not observed
same,MIC,[6],64 µg/mL
same,MIC,[1]; pH 6,16 µg/mL
same,MIC,[7],16 µg/mL
"RSLCLLHCRLK-NH2 [undecapeptide, amino acid residues 7 to 17 of sapecin B with C-terminal amidation]",antimicrobial activity,[8],significant antimicrobial activity
